For one assay, the target named is GST-tag full length MDM2 (Homo sapiens (Human), UniProt Q00987). Kind of assay: MDM2-p53 TR-FRET Binding Assays. As to conditions: MDM2 / biotin p53 peptide. An excerpt: MDM2-p53 TR-FRET Binding Assays
Examples are listed in the following.

The test system of another assay is SJSA-1. Kind of assay: Cell proliferation inhibition (CCK-8) against SJSA-1. As to conditions: Homo sapiens, SJSA-1, 120 h, SJSA-1 human osteosarcoma cells, 5 days. It counts as cell-based. On the procedure:
Cellular data of selected compounds against SW480 and SJSA-1 was conducted according to the following protocol.
Cells in the logarithmic growth phase were seeded into 96-well plates (Corning, 3599; 180 μL/well; 3000 cells/well for both SW480 and SJSA-1 cell lines) and cultured in an incubator (Thermo, 3111) for 24 h. Cells were then treated in triplicate by adding 20 μL/well solution containing different concentrations of the tested compounds in 5% CO2 at 37° C. for 5 days. After that, cells were treated for additional 4 h by adding 10 μL/well Cell Counting Kit-8 (CCK-8; DojinDo, CK04) solution. Finally, the absorbance was read at 450 nm with a microplate reader spectra-MAX190 (Molecular Devices, Sunnyvale, Calif.). The IC50 value was determined with SofeMax Pro, a software equipped in this reader. The cell proliferation inhibition rate was calculated as: proliferation inhibition (%)=[1-(A450 treated/A450 control)]×100%.
All the tested compounds could be dissolved in DMSO at 10^−2 M (as stock solution). […] The compounds were diluted at 9 3-fold serial concentrations beginning at the initial concentration of 10 μM (i.e., the highest final concentration to treat the cells). The detailed drug dilution protocol is: Add 5 μL stock solution (10^−2 M) into 495 μL medium, transfer 125 μL of the resulting solution (100 μM) into 250 μL medium, and repeat this till the 9th resulting concentration of 15.2 nM. Pipet 20 μL of each drug dilution into cell plates.

By IC50 is commonly meant the concentration at which inhibition is half-maximal. A higher IC50 goes with weaker potency.

Sequence of GST-tag full length MDM2 (Q00987 whole entry): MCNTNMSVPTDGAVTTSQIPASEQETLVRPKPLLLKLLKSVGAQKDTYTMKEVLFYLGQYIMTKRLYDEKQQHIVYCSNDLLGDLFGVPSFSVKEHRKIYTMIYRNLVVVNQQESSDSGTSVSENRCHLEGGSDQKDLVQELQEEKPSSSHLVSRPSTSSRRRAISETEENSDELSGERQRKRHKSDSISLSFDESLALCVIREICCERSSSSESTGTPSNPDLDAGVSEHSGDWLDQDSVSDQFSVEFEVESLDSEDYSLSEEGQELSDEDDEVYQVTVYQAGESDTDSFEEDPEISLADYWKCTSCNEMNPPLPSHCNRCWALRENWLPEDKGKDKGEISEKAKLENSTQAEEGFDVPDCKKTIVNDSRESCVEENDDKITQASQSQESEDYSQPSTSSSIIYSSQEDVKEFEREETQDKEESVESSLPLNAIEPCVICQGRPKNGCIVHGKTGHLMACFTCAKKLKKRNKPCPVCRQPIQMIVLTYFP

Turning to `COc1cc(C(N)=O)ccc1NC(=O)[C@@H]1N[C@@H](C[C@H](C)C(F)(F)F)[C@@]2(C(=O)Nc3cc(Cl)ccc32)[C@H]1c1cccc(Cl)c1F` [Example 66, (2′R,3R,3′S,5′S)-N-(4-carbamoyl-2-methoxy-phenyl)-6-chloro-3′-(3-chloro-2-fluoro-phenyl)-2-oxo-5′-[(2S)-3,3,3-trifluoro-2-methyl-propyl]spiro[indoline-3,4′-pyrrolidine]-2′-carboxamide], the IC50 at GST-tag full length MDM2 was at most 3.6 nM; in the assay with SJSA-1, at most 20 nM.
The corresponding values for `COc1cc(C(=O)O)ccc1NC(=O)[C@@H]1N[C@@H](CC2(CF)CC2)C2(C(=O)Nc3cc(Cl)ccc32)[C@H]1c1cccc(Cl)c1F` (stereo partly shown) [Example 74, 4-{[6-chloro-4′-(3-chloro-2-fluoro-phenyl)-2′-(1-fluoromethyl-cyclopropylmethyl)-2-oxo-1,2-dihydro-spiro[indole-3,3′-pyrrolidin]e-5′-carbonyl]-amino}-3-methoxy-benzoic acid] are at most 7.2 nM and at most 20 nM.
In the same order, the values of `COc1cc(C(N)=O)ccc1NC(=O)[C@@H]1N[C@@H](CC2(CF)CC2)C2(C(=O)Nc3cc(Cl)ccc32)[C@H]1c1cccc(Cl)c1F` (stereo partly shown) [Example 75, 6-chloro-4′-(3-chloro-2-fluoro-phenyl)-2′-(1-fluoromethyl-cyclopropylmethyl)-2-oxo-1,2-dihydro-spiro[indole-3,3′-pyrrolidine]-5-carboxylic acid (4-carbamoyl-2-methoxy-phenyl)-amide] are at most 7.2 nM and at most 20 nM.
`COc1cc(C(=O)O)ccc1NC(=O)[C@@H]1N[C@@H](CC2(CF)CC2)[C@@]2(C(=O)Nc3cc(Cl)ccc32)[C@H]1c1cccc(Cl)c1F` [Example 76, 4-[[(2′R,3R,3′S,5′S)-6-chloro-3′-(3-chloro-2-fluoro-phenyl)-5′-[[1-(fluoromethyl)cyclopropyl]methyl]-2-oxo-spiro[indoline-3,4′-pyrrolidine]-2′-carbonyl]amino]-3-methoxy-benzoic acid]: the IC50 at GST-tag full length MDM2 is at most 7.2 nM; in the assay on SJSA-1, at most 20 nM.
Consider `COc1cc(C(N)=O)ccc1NC(=O)[C@@H]1N[C@@H](CC2(CF)CC2)[C@@]2(C(=O)Nc3cc(Cl)ccc32)[C@H]1c1cccc(Cl)c1F` [Example 77, (2′R,3R,3′S,5′S)-N-(4-carbamoyl-2-methoxy-phenyl)-6-chloro-3′-(3-chloro-2-fluoro-phenyl)-5′-[[1-(fluoromethyl)cyclopropyl]methyl]-2-oxo-spiro[indoline-3,4′-pyrrolidine]-2′-carboxamide], for which the values for the IC50 at GST-tag full length MDM2 and with SJSA-1 were at most 7.2 nM and at most 20 nM, respectively.

The values are drawn from US9701685B2, “Spiropyrrolidines as MDM2 inhibitors” (HUDSON BIOPHARMA INC., priority 2014, dated 2017).
